The target in one experiment is T1, thromboxane synthetase (Homo sapiens, UniProt P24557).
T1 construct: crude microsomal preparation of thromboxane synthetase from lysed human platelets; from tissue; host or cells: lysed human platelets, crude microsomal preparation
T1 sequence (P24557 1-533): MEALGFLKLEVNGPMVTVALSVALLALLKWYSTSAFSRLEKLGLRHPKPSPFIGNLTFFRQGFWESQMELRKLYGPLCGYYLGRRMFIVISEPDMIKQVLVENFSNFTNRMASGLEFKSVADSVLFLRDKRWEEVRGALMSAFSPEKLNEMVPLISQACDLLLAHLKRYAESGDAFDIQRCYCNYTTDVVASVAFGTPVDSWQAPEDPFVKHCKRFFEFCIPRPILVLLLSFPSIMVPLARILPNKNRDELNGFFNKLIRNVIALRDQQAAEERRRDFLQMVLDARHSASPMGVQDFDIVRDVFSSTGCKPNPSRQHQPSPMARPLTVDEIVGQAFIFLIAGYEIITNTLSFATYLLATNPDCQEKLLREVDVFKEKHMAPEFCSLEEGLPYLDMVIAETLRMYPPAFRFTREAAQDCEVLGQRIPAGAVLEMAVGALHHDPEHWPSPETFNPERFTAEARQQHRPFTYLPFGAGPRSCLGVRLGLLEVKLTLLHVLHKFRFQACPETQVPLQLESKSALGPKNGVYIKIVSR
In words: in vitro inhibition of the thromboxane synthetase enzyme. In kind it is biochemical. As to conditions: ratio TxB2/PGF2α+β reduced to 50% of control. How it is done:
Res. Comm. 74, 1432 (1977); the testi g procedure is as follows:
^14 C-Archidonic acid is incubated with an enzyme consisting of solubilized and partially purified prostaglandin cyclo-oxygenase from sheep seminal vesicles and a crude microsomal preparation of thromboxane synthetase from lysed human platelets. The test compound (dissolved in buffer, or if necessary, in a small amount of ethanol) is added to the incubation medium. At the end of the incubation period (30 minutes), Prostaglandin E2 (PGE2) is reduced to a mixture of Prostaglandin F2 α and F2 β (PGF2α+β) by addition of sodium borohydride. The radioactive products and excess substrate are extracted into ethyl acetate; the extract is evaporated to dryness; the residue is dissolved in acetone, spotted on thin-layer plates and chromatographed in the solvent system toluene:acetone:glacial acetic acid (100 volumes:100 volumes:3 volumes). The radioactive zones are located; those corresponding to Thromboxane B2 (TxB2) and PGF2 α+β are transferred to liquid scintillatiopn vials and counted. The ratio of counts for TxB2 /PGF2 α+β is calculated for each concentration of test compound and IC50 values are determined graphically as the concentration of test compound at which the ratio of TxB2 /PGF2 α+β is reduced to 50% of the control value.

In a further experiment the test system is prostacyclin (PGI2). In words: plasma levels of prostacyclin in vivo after ionophore A23187 in rats. As to conditions: rat, oral dose 0.10 mg/kg or higher. How it is done: (§1) The inhibition of the synthesis and the reduction of plasma levels of thromboxane is determined in vivo on administration to rats in the following manner (as adapted from the procedures described by Tai et al. in Anal. Biochem. 87:343, 1978 and by Salmon in Prostaglglandins 15:383, 1978):
(§2) Rats are dosed with vehicle or test drug and injected intravenously with ionophore A23187 (0.5 mg/kg) two hours later. Blood is collected for analysis 2 minutes after the ionophore injection. A single aliquot of each plasma sample is assayed for thromboxane B2 and another aliquot for 6-keto-PGF1 α, the stable metabolites of thromboxane A2 and prostacyclin (PGI2) respectively, by radioimmunoassay.

A further experiment concerns platelet aggregation. The experiment can be described thus: inhibition of variously induced platelet aggregation.
For experiment [1], the target named is T2, prostacyclin (PGI2) synthetase (Bos taurus, UniProt Q29626).
T2 construct: crude PGI2 synthetase in the form of a microsomal fraction of bovine aorta; from tissue; host or cells: bovine aorta, microsomal fraction
T2 sequence (Q29626 1-500): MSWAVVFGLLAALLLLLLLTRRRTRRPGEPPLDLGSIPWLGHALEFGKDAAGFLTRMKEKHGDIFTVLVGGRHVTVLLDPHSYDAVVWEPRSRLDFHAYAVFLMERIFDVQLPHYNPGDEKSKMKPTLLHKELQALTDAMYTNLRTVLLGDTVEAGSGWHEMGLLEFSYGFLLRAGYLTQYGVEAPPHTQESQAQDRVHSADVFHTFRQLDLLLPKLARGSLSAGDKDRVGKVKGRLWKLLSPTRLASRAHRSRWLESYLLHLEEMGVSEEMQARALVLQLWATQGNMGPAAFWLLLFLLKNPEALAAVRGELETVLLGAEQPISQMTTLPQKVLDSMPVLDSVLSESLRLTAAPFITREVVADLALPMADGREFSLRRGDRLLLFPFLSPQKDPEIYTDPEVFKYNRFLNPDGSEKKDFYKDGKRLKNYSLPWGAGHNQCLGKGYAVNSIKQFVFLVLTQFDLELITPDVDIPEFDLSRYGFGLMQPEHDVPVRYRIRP
The experiment can be described thus: in-vitro effect on prostacyclin (PGI2) synthetase. In kind it is biochemical, bovine. As to conditions: ratio 6-keto-PGF1α/PGE2 reduced to 50% of control, read-out: IC50 for inhibition of prostacyclin synthetase. On the procedure: The in-vitro effect on prostacyclin (PGI2) synthetase is measured analogous to the method of Sun et al., Prostaglandins 14, 1055 (1977);
The testing procedure is as follows:
^14 C-Arachidonic acid is incubated with an enzyme mixture consisting of solubilized and partially purified prostaglandin cyclo-oxygenase from sheep seminal vesicles and crude PGI2 synthetase in the form of a microsomal fraction of bovine aorta.
Test compound (dissolved in buffer, or if necessary, in a small amount of ethanol) is placed in the incubation medium. The reaction mixture is incubated in 100 mM Tris HCl (pH 7.5) for 30 minutes at 37° C., acidified to pH 3 and extracted into ethyl acetate. The extract is evaporated to dryness; the residue is dissolved in acetone, spotted on thin-layer plates and chromatographed in a solvent system described in Sun et al. The radioactive zones are located with a scanner; those corresponding to 6-keto-PGF1 α (a stable end product of prostacyclin biotransformation) and PGE2 are transferred to liquid scintillation vials and counted. The ratio of counts for 6-keto-PGF1 α/PGE2 is calculated for each concentration of test compound used. IC50 values for inhibition are determined graphically as the concentration of test compound at which the ratio of 6-keto-PGF1 α/PGE2 is reduced to 50% of the control value.

Experiment [2] concerns arachidonic acid induced pulmonary obstruction. In words: protection against sudden death due to arachidonic acid induced pulmonary obstruction. The format is in vivo. As to conditions: mice, oral, 100 mg/kg.
Experiment [3] deals with T3, prostaglandin cyclooxygenase (Ovis aries, UniProt P05979).
T3 construct: Lyophilized sheep seminal vesicle microsomes are utilized as the prostaglandin-synthesizing enzyme preparation; from tissue; host or cells: lyophilized sheep seminal vesicle microsomes
T3 sequence (P05979 25-600): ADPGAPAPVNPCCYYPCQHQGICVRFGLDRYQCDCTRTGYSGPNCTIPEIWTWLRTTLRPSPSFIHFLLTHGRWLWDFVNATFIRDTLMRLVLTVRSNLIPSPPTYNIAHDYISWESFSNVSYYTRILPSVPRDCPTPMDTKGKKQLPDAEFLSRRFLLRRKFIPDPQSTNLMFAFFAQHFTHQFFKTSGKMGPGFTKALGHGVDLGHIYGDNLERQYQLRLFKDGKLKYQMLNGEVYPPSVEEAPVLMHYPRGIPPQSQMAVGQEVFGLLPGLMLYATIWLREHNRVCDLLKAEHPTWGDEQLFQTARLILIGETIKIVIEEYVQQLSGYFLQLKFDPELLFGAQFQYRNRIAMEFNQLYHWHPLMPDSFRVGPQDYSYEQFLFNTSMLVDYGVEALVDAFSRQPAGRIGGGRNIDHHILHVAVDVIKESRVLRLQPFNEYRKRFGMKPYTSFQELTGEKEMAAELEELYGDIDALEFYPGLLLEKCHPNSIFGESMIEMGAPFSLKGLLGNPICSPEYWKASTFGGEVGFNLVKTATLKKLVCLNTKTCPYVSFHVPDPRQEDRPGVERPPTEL
The experiment can be described thus: in-vitro effect on prostaglandin cyclooxygenase. The format is biochemical, sheep. To be noted: 50% reduction in PGE2 synthesized, read-out: IC50 for inhibition of cyclooxygenase. On the procedure: The in-vitro effect on prostaglandin cyclooxygenase is measured by a modification of the method of Takeguchi et al. described in Biochemistry 10, 2372 (1971); the testing procedure is as follows: Lyophilized sheep seminal vesicle microsomes are utilized as the prostaglandin-synthesizing enzyme preparation. The conversion of ^14 C-arachidonic acid to PGE2 is measured. Test compounds (dissolved in buffer, or if necessary, in small amount of ethanol) are added to the incubation mixture. The prostaglandins are extracted and separated by thin-layer chromatography; the plates are scanned, the radioactive zones corresponding to PGE2 are transferred to liquid scintillation vials and counted for radioactivity. IC50 values for inhibition are determined graphically as the concentration of test compound causing a 50% reduction in the amount of PGE2 synthesized.

A short description of experiment [4]: prolongation of bleeding time in the rat. In kind it is in vivo. As to conditions: oral, dose of about 30 mg/kg. An excerpt: Experimentally, prolongation of bleeding time in the rat is indicative of a beneficial antithrombotic effect.
Another experiment deals with thrombocytopenia. The experiment can be described thus: inhibition of thrombocytopenia.
The test system of another experiment is thromboxane B2. In words: plasma levels of thromboxane B2 in vivo after ionophore A23187 in rats. As to conditions: rat, oral dose as low as 0.10 mg/kg. On the procedure: as §1, §2

The structures appear in SMILES notation. pIC50: −log10 of the molar value.

On to `Cc1c(-c2cccnc2)n(CCCCCC(=O)O)c2ccc(Cl)cc12` [Example 7, 1-(5-carboxypentyl)-5-chloro-3-methyl-2-(3-pyridyl)indole], for which the negative-log IC50 (pIC50) on thromboxane synthetase was 9.00.

Turning to `Cc1c(-c2cccnc2)n(CCCCCCCC(=O)O)c2ccccc12` [Example 1, 1-(7-carboxyheptyl)-3-methyl-2-(3-pyridyl)indole], the “plasma level of prostacyclin” value with prostacyclin (PGI2) is on record as “a surprising increase”. The “inhibition of variously induced platelet aggregation” value in the experiment with platelet aggregation is “inhibits”. Besides, the pIC50 in experiment [1] and in experiment [3] was ~4.00 in each case. The “protection against sudden death” value in [2] is recorded as “protects against sudden death”. For the same compound, the bleeding time entry in experiment [4] is listed as “prolongs bleeding time”. The inhibition of thrombocytopenia result in the experiment on thrombocytopenia is listed as “inhibits”. Also, in the experiment on thromboxane B2, the “decrease of the plasma concentration of thromboxane B2” value is recorded as “over 50%”.

For `Cc1c(-c2cccnc2)n(Cc2ccc(C(=O)O)cc2)c2ccccc12` [Example 11, 1-(4-carboxybenzyl)-3-methyl-2-(3-pyridyl)indole], the negative logarithm of the IC50 (pIC50) on thromboxane synthetase is 7.30.

In the case of `Cc1c(-c2cccnc2)n(CCCCCC(=O)O)c2ccc(CCC(=O)O)cc12` [Example 9, 1-(5-carboxypentyl)-5-(2-carboxyethyl)-3-methyl-2-(3-pyridyl)indole], on thromboxane synthetase, the negative logarithm of the IC50 (pIC50) was 7.70.

For the compound `Cc1c(-c2cccnc2)n(CCCCCC(N)=O)c2ccc(Cl)cc12` [Example 13, 1-(5-carbamoylpentyl)-5-chloro-3-methyl-2-(3-pyridyl)indole], the pIC50 at thromboxane synthetase was 8.00.

(Values after patent US4460777A, “N-Substituted-2-pyridylindoles” (Ciba-Geigy Corporation, priority 1982, dated 1984).)
